System: subjects with moderately to severely active RA who have an inadequate response to methotrexate (MTX)
Test: Study 1 (add-on to MTX) - Alanine Aminotransferase (ALT) levels
Format: in vivo, human
Details: 12 weeks results
Procedure: Double-blind, placebo-controlled add on study in subjects with moderately to severely active RA who have an inadequate response to methotrexate (MTX) (oral or parenteral).
595 subjects randomized to one of 6 dose regimens of Compound 1 (dosed as [Compound 1:HCl:3H2O]) (3 dose levels administered either once or twice daily) or placebo on top of each subject's stable dose of MTX.
Compound 1 (dosed as [Compound 1:HCl:3H2O]) is dosed for twelve weeks once daily (q.d.) (50 mg, 100 mg or 200 mg) or twice daily (b.i.d.) (25 mg, 50 mg or 100 mg); or placebo.
At Week 12, the subjects on placebo who have not achieved 20% improvement in swollen joint count (SJC66) and tender joint count (TJC68) are re-randomized automatically to receive Compound 1 (dosed as a [Compound 1:HCl:3H2O]) either at 100 mg q.d. or 50 mg b.i.d. doses in a blinded fashion; subjects on 50 mg q.d. who have not achieved 20% improvement in SJC66 and TJC68 will be assigned to 100 mg q.d. and subjects on 25 mg b.i.d. that have not achieved a 20% improvement in SJC66 and TJC68 will be assigned to 50 mg b.i.d. Subjects who switch treatment at week 12 are handled as if they discontinued at week 12 for the purpose of statistical analysis, whereas subjects in the other groups will maintain their randomized treatment until Week 24.
ALT levels determination is available at Quest Diagnostics, Clinical Trials, Quest House, 125-135 Staines Road, Hounslow, Middlesex, TW3 3JB, United Kingdom under Catalogue n#84460.
ALT catalyzes the exchange of the amino group of alanine with the oxogroup of 2-ketoglutarate to form pyruvate and glutamate. In the presence of lactic dehydrogenase, pyruvate reacts with NADH to form NAD+, measured spectrophotometrically. Guidelines for the ALT value have been issued by the association for Clinical Biochemistry and Laboratory Medicine, 130-132 Tooley Street LONDON SE1 2TU, united Kingdom, wherein the ALT value should be below 34 U/l in Female and below 52 U/L in male.

**Q.** Which “Study 1 - ALT Mean CFB” value (50 mg q.d., week 1) does the source give for `O=C(Nc1nc2cccc(-c3ccc(CN4CCS(=O)(=O)CC4)cc3)n2n1)C1CC1` [Compound 1, cyclopropanecarboxylic acid {5-[4-(1,1-dioxo-thiomorpholin-4-ylmethyl)-phenyl]-[1,2,4]triazolo[1,5-a]pyridin-2-yl}-amide] here?
**A.** 1 IU/L

**Q.** And the “Study 1 - ALT Mean percentage CFB” value (50 mg q.d., week 1)?
**A.** 5%

**Q.** What about the “Study 1 - ALT Mean CFB” value (50 mg q.d., week 2) of the same molecule?
**A.** −1 IU/L

**Q.** What about the “Study 1 - ALT Mean percentage CFB” value (50 mg q.d., week 2) of the same molecule?
**A.** 0%

**Q.** And the “Study 1 - ALT Mean CFB” value (50 mg q.d., week 4)?
**A.** −1 IU/L

**Q.** What about the “Study 1 - ALT Mean percentage CFB” value (50 mg q.d., week 4) of the same molecule?
**A.** 4%

**Q.** What about the “Study 1 - ALT Mean CFB” value (50 mg q.d., week 8) of the same molecule?
**A.** 0 IU/L

**Q.** What about the “Study 1 - ALT Mean percentage CFB” value (50 mg q.d., week 8) of the same molecule?
**A.** 9%

**Q.** And the “Study 1 - ALT Mean CFB” value (50 mg q.d., week 12)?
**A.** 0 IU/L

**Q.** And the “Study 1 - ALT Mean percentage CFB” value (50 mg q.d., week 12)?
**A.** 12%

**Q.** What about the “Study 1 - ALT Mean CFB” value (100 mg q.d., week 1) of the same molecule?
**A.** 3 IU/L

**Q.** And the “Study 1 - ALT Mean percentage CFB” value (100 mg q.d., week 1)?
**A.** 14%

**Q.** What about the “Study 1 - ALT Mean CFB” value (100 mg q.d., week 2) of the same molecule?
**A.** 1 IU/L

**Q.** And the “Study 1 - ALT Mean percentage CFB” value (100 mg q.d., week 2)?
**A.** 9%

**Q.** And the “Study 1 - ALT Mean CFB” value (100 mg q.d., week 4)?
**A.** 1 IU/L

**Q.** And the “Study 1 - ALT Mean percentage CFB” value (100 mg q.d., week 4)?
**A.** 9%

**Q.** And the “Study 1 - ALT Mean CFB” value (100 mg q.d., week 8)?
**A.** 2 IU/L

**Q.** And the “Study 1 - ALT Mean percentage CFB” value (100 mg q.d., week 8)?
**A.** 15%

**Q.** What about the “Study 1 - ALT Mean CFB” value (100 mg q.d., week 12) of the same molecule?
**A.** 2 IU/L

**Q.** What about the “Study 1 - ALT Mean percentage CFB” value (100 mg q.d., week 12) of the same molecule?
**A.** 16%

**Q.** And the “Study 1 - ALT Mean CFB” value (200 mg q.d., week 1)?
**A.** 2 IU/L

**Q.** What about the “Study 1 - ALT Mean percentage CFB” value (200 mg q.d., week 1) of the same molecule?
**A.** 11%

**Q.** And the “Study 1 - ALT Mean CFB” value (200 mg q.d., week 2)?
**A.** 1 IU/L

**Q.** And the “Study 1 - ALT Mean percentage CFB” value (200 mg q.d., week 2)?
**A.** 16%

**Q.** What about the “Study 1 - ALT Mean CFB” value (200 mg q.d., week 4) of the same molecule?
**A.** 1 IU/L

**Q.** And the “Study 1 - ALT Mean percentage CFB” value (200 mg q.d., week 4)?
**A.** 15%

**Q.** What about the “Study 1 - ALT Mean CFB” value (200 mg q.d., week 8) of the same molecule?
**A.** 4 IU/L

**Q.** What about the “Study 1 - ALT Mean percentage CFB” value (200 mg q.d., week 8) of the same molecule?
**A.** 31%

**Q.** What about the “Study 1 - ALT Mean CFB” value (200 mg q.d., week 12) of the same molecule?
**A.** 3 IU/L

**Q.** And the “Study 1 - ALT Mean percentage CFB” value (200 mg q.d., week 12)?
**A.** 34%

**Q.** What about the “Study 1 - ALT Mean CFB” value (2 × 25 mg b.i.d., week 1) of the same molecule?
**A.** −1 IU/L

**Q.** What about the “Study 1 - ALT Mean percentage CFB” value (2 × 25 mg b.i.d., week 1) of the same molecule?
**A.** 4%

**Q.** And the “Study 1 - ALT Mean CFB” value (2 × 25 mg b.i.d., week 2)?
**A.** −2 IU/L

**Q.** What about the “Study 1 - ALT Mean percentage CFB” value (2 × 25 mg b.i.d., week 2) of the same molecule?
**A.** 2%

**Q.** And the “Study 1 - ALT Mean CFB” value (2 × 25 mg b.i.d., week 4)?
**A.** −1 IU/L

**Q.** What about the “Study 1 - ALT Mean percentage CFB” value (2 × 25 mg b.i.d., week 4) of the same molecule?
**A.** 9%

**Q.** And the “Study 1 - ALT Mean CFB” value (2 × 25 mg b.i.d., week 8)?
**A.** 0 IU/L

**Q.** What about the “Study 1 - ALT Mean percentage CFB” value (2 × 25 mg b.i.d., week 8) of the same molecule?
**A.** 11%

**Q.** And the “Study 1 - ALT Mean CFB” value (2 × 25 mg b.i.d., week 12)?
**A.** 1 IU/L

**Q.** And the “Study 1 - ALT Mean percentage CFB” value (2 × 25 mg b.i.d., week 12)?
**A.** 21%

**Q.** What about the “Study 1 - ALT Mean CFB” value (2 × 50 mg b.i.d., week 1) of the same molecule?
**A.** 1 IU/L

**Q.** What about the “Study 1 - ALT Mean percentage CFB” value (2 × 50 mg b.i.d., week 1) of the same molecule?
**A.** 8%

**Q.** And the “Study 1 - ALT Mean CFB” value (2 × 50 mg b.i.d., week 2)?
**A.** 1 IU/L

**Q.** And the “Study 1 - ALT Mean percentage CFB” value (2 × 50 mg b.i.d., week 2)?
**A.** 13%

**Q.** And the “Study 1 - ALT Mean CFB” value (2 × 50 mg b.i.d., week 4)?
**A.** 3 IU/L

**Q.** What about the “Study 1 - ALT Mean percentage CFB” value (2 × 50 mg b.i.d., week 4) of the same molecule?
**A.** 24%

**Q.** And the “Study 1 - ALT Mean CFB” value (2 × 50 mg b.i.d., week 8)?
**A.** 2 IU/L

**Q.** What about the “Study 1 - ALT Mean percentage CFB” value (2 × 50 mg b.i.d., week 8) of the same molecule?
**A.** 20%

**Q.** What about the “Study 1 - ALT Mean CFB” value (2 × 50 mg b.i.d., week 12) of the same molecule?
**A.** 2 IU/L

**Q.** What about the “Study 1 - ALT Mean percentage CFB” value (2 × 50 mg b.i.d., week 12) of the same molecule?
**A.** 28%

From patent US20180200257A1, “METHODS FOR THE TREATMENT OF INFLAMMATORY DISORDERS” (Galapagos NV, priority 2015, published 2018)
